Reference: US8883782B2, “Spiro-tetracyclic ring compounds as beta-secretase modulators and methods of use” (Amgen Inc., priority 2010, dated 2014)

How the values were obtained:
[1] = target: Beta Secretase enzyme (BACE) (Homo sapiens, UniProt P56817); experiment: In vitro enzymatic BACE FRET (fluorescence resonance energy transfer) assay; assay type: biochemical; conditions: average IC50, enzyme assay; read-out: BACE 1 FRET assay
Procedure, shortened: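 Cleavage of a 50 nM fluorophore/quencher peptide FRET substrate by BACE for 1 h in 0.05 M acetate pH 4.2, 10% DMSO, 100 uM genapol. Reaction stopped with Tris to neutral pH before fluorescence reading.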

[2] = test system: Aβ40 in conditioned medium of cells stably expressing Amyloid Precursor Protein (APP); experiment: In vitro BACE cell-based assay (Aβ40 in conditioned medium, sandwich ELISA); conditions: Homo sapiens, HEK293, average IC50, HEK cells; read-out: HEK cell assay
Procedure, shortened: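 Step two: 10-point compound titration added, starting 100 μM or 10 μM, 0.1% DMSO. Step three: medium Aβ40 measured by ELISA, capture 3 h and detection 2 h at 4° C, TRF read.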

Sequence of Beta Secretase enzyme (BACE) (P56817 46-501, species assumed): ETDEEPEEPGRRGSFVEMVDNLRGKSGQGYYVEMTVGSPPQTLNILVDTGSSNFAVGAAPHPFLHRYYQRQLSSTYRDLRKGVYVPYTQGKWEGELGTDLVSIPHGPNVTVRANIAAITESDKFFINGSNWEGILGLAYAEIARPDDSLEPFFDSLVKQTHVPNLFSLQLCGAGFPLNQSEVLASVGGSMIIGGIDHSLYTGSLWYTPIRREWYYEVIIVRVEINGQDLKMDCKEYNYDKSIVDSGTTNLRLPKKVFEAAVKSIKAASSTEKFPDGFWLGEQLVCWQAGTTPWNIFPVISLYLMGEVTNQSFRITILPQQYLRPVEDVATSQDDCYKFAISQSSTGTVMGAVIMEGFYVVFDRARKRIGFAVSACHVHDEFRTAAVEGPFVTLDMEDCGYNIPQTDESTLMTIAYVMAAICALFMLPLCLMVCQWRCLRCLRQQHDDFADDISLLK

| SMILES | IC50 [1] | IC50 [2] |
| --- | --- | --- |
| N#Cc1cccc(-c2ccc3c(c2)[C@@]2(COC(N)=N2)c2cc(N4CC[C@@H](F)C4)nc(F)c2O3)c1 [Example 919, 3-((5S)-2′-amino-1-fluoro-3-((3R)-3-fluoro-1-pyrrolidinyl)spiro[chromeno[2,3-c]pyridine-5,4′-[1,3]oxazol]-7-yl)benzonitrile] | 0.4 nM | 6 nM |
| N#Cc1cccc(-c2ccc3c(c2)[C@@]2(COC(N)=N2)c2cc(N4CCC(F)(F)C4)nc(F)c2O3)c1 [Example 920, 3-((5S)-2′-amino-3-(3,3-difluoro-1-pyrrolidinyl)-1-fluorospiro[chromeno[2,3-c]pyridine-5,4′-[1,3]oxazol]-7-yl)benzonitrile] | 0.2 nM | 12 nM |
| NC1=N[C@@]2(CO1)c1cc(-c3cncc(F)c3)ccc1Oc1c2cc(N2CC[C@@H](F)C2)nc1F [Example 921, (5S)-1-fluoro-7-(5-fluoro-3-pyridinyl)-3-((3R)-3-fluoro-1-pyrrolidinyl)spiro[chromeno[2,3-c]pyridine-5,4′-[1,3]oxazol]-2′-amine] | 0.5 nM | 6 nM |
| N#Cc1cccc(-c2ccc3c(c2)[C@@]2(COC(N)=N2)c2cc(N4CCC(F)(F)CC4)nc(F)c2O3)c1 [Example 923, 3-((5S)-2′-amino-3-(4,4-difluoro-1-piperidinyl)-1-fluorospiro[chromeno[2,3-c]pyridine-5,4′-[1,3]oxazol]-7-yl)benzonitrile] | 0.3 nM | 32 nM |
| N#Cc1cccc(-c2ccc3c(c2)[C@@]2(COC(N)=N2)c2cc(N4CC[C@H](F)C4)nc(F)c2O3)c1 [Example 924, 3-((5S)-2′-amino-1-fluoro-3-((3S)-3-fluoro-1-pyrrolidinyl)spiro[chromeno[2,3-c]pyridine-5,4′-[1,3]oxazol]-7-yl)benzonitrile] | 0.5 nM | 18 nM |
| CC#Cc1cncc(-c2ccc3c(c2)[C@@]2(COC(N)=N2)c2cc(Cl)nc(N4CCC(F)(F)C4)c2O3)c1 [Example 925, (5S)-3-chloro-1-(3,3-difluoro-1-pyrrolidinyl)-7-(5-(1-propyn-1-yl)-3-pyridinyl)spiro[chromeno[2,3-c]pyridine-5,4′-[1,3]oxazol]-2′-amine] | 24.6 nM | 547 nM |
| NC1=N[C@@]2(CO1)c1cc(-c3cncc(F)c3)ccc1Oc1c2cc(N2CC[C@H](F)C2)nc1F [Example 926, (5S)-1-fluoro-7-(5-fluoro-3-pyridinyl)-3-((3S)-3-fluoro-1-pyrrolidinyl)spiro[chromeno[2,3-c]pyridine-5,4′-[1,3]oxazol]-2′-amine] | 0.3 nM | 8 nM |
| NC1=N[C@@]2(CS1)c1cc(-c3cccnc3F)ccc1Oc1cnc(N3CC[C@@H](F)C3)cc12 [Example 929, (5S)-7-(2-fluoro-3-pyridinyl)-3-((3R)-3-fluoro-1-pyrrolidinyl)spiro[chromeno[2,3-c]pyridine-5,4′-[1,3]thiazol]-2′-amine] | 0.3 nM | 3 nM |
| NC1=N[C@@]2(CS1)c1cc(-c3cccnc3F)ccc1Oc1cnc(C3CCOCC3)cc12 [Example 930, (5S)-7-(2-fluoro-3-pyridinyl)-3-(tetrahydro-2H-pyran-4-yl)spiro[chromeno[2,3-c]pyridine-5,4′-[1,3]thiazol]-2′-amine] | 4 nM | 57 nM |
| NC1=N[C@@]2(CS1)c1cc(-c3cccnc3F)ccc1Oc1cnc(N3CCC(F)(F)CC3)cc12 [Example 933, (5S)-3-(4,4-difluoro-1-piperidinyl)-7-(2-fluoro-3-pyridinyl)spiro[chromeno[2,3-c]pyridine-5,4′-[1,3]thiazol]-2′-amine] | 0.5 nM | 33 nM |
| NC1=N[C@@]2(CO1)c1cc(-c3cnccn3)ccc1Oc1c(F)cc(C3CCOCC3)cc12 [Example 935, (4S)-4′-fluoro-7′-(2-pyrazinyl)-2′-(tetrahydro-2H-pyran-4-yl)spiro[1,3-oxazole-4,9′-xanthen]-2-amine] | 6.6 nM | 82 nM |
| CC#Cc1cncc(-c2ccc3c(c2)[C@@]2(COC(N)=N2)c2cc(-c4ncccn4)ncc2O3)c1 [Example 936, (5S)-7-(5-(1-propyn-1-yl)-3-pyridinyl)-3-(2-pyrimidinyl)spiro[chromeno[2,3-c]pyridine-5,4′-[1,3]oxazol]-2′-amine] | 3 nM | 28 nM |
| COc1cncc(-c2ccc3c(c2)[C@@]2(COC(N)=N2)c2cc(C4CCOCC4)cc(F)c2O3)c1 [Example 937, (4S)-4′-fluoro-7′-(5-methoxy-3-pyridinyl)-2′-(tetrahydro-2H-pyran-4-yl)spiro[1,3-oxazole-4,9′-xanthen]-2-amine] | 1.7 nM | 28 nM |
| COc1ccc2c(c1)[C@@]1(COC(N)=N1)c1cc(C3(O)CCOCC3)cc(F)c1O2 [Example 938, 4-((4S)-2-amino-4′-fluoro-7′-methoxyspiro[1,3-oxazole-4,9′-xanthen]-2′-yl)tetrahydro-2H-pyran-4-ol] | 4430 nM | 3850 nM |
| COc1ccc2c(c1)[C@@]1(COC(N)=N1)c1cc(C3(F)CCOCC3)cc(F)c1O2 [Example 939, (4S)-4′-fluoro-2′-(4-fluorotetrahydro-2H-pyran-4-yl)-7′-methoxyspiro[1,3-oxazole-4,9′-xanthen]-2-amine] | 1710 nM | 3560 nM |
| CC#Cc1cncc(-c2ccc3c(c2)[C@@]2(COC(N)=N2)c2cc(C4=CCOCC4)cc(F)c2O3)c1 [Example 946, (4S)-2′-(3,6-dihydro-2H-pyran-4-yl)-4′-fluoro-7′-(5-(1-propyn-1-yl)-3-pyridinyl)spiro[1,3-oxazole-4,9′-xanthen]-2-amine] | 0.3 nM | 4 nM |
| CC#Cc1cncc(-c2ccc3c(c2)[C@@]2(COC(N)=N2)c2cc(OCC(C)(C)C#N)cc(F)c2O3)c1 [Example 948, 3-(((4S)-2-amino-4′-fluoro-7′-(5-(1-propyn-1-yl)-3-pyridinyl)spiro[1,3-oxazole-4,9′-xanthen]-2′-yl)oxy)-2,2-dimethylpropanenitrile] | 0.4 nM | 4 nM |
| CC#Cc1cncc(-c2ccc3c(c2)[C@@]2(COC(N)=N2)c2cc(N4CCOCC4)cc(F)c2O3)c1 [Example 952, (4S)-4′-fluoro-2′-(4-morpholinyl)-7′-(5-(1-propyn-1-yl)-3-pyridinyl)spiro[1,3-oxazole-4,9′-xanthen]-2-amine] | 0.6 nM | 4 nM |

Second part, the compound after the results:

| IC50 [1] | IC50 [2] | SMILES |
| --- | --- | --- |
| 21.6 nM | 347 nM | NC1=N[C@@]2(CS1)c1cc(-c3cccnc3F)ccc1Oc1cnc([C@@H]3CCCOC3)cc12 [Example 931, (5S)-7-(2-fluoro-3-pyridinyl)-3-((3S)-tetrahydro-2H-pyran-3-yl)spiro[chromeno[2,3-c]pyridine-5,4′-[1,3]thiazol]-2′-amine] |
| 16.2 nM | 208 nM | NC1=N[C@@]2(CS1)c1cc(-c3cccnc3F)ccc1Oc1cnc([C@H]3CCCOC3)cc12 [Example 932, (5S)-7-(2-fluoro-3-pyridinyl)-3-((3R)-tetrahydro-2H-pyran-3-yl)spiro[chromeno[2,3-c]pyridine-5,4′-[1,3]thiazol]-2′-amine] |
| 1 nM | 5 nM | Cc1cc(-c2cc3c(cn2)Oc2ccc(-c4cccnc4F)cc2[C@@]32CSC(N)=N2)ccn1 [Example 934, (5S)-7-(2-fluoro-3-pyridinyl)-3-(2-methyl-4-pyridinyl)spiro[chromeno[2,3-c]pyridine-5,4′-[1,3]thiazol]-2′-amine] |
| 5.4 nM | 60 nM | Cc1ccc(-c2cnc3c(c2)[C@]2(CSC(N)=N2)c2cc(C#CC4(C)COC4)ccc2O3)cn1 [Example 940, (5S)-7-((3-methyl-3-oxetanyl)ethynyl)-3-(6-methyl-3-pyridinyl)spiro[chromeno[2,3-b]pyridine-5,4′-[1,3]thiazol]-2′-amine] |
| 3.8 nM | 97 nM | COc1ccc(-c2cnc3c(c2)[C@]2(CSC(N)=N2)c2cc(C#CC4(C)COC4)ccc2O3)cn1 [Example 941, (5S)-3-(6-methoxy-3-pyridinyl)-7-((3-methyl-3-oxetanyl)ethynyl)spiro[chromeno[2,3-b]pyridine-5,4′-[1,3]thiazol]-2′-amine] |
| 0.7 nM | 1 nM | CC#Cc1cncc(-c2ccc3c(c2)[C@@]2(COC(N)=N2)c2cc(C#CC4(C)COC4)cnc2O3)c1 [Example 943, (5S)-3-((3-methyl-3-oxetanyl)ethynyl)-7-(5-(1-propyn-1-yl)-3-pyridinyl)spiro[chromeno[2,3-b]pyridine-5,4′-[1,3]oxazol]-2′-amine] |
| 0.5 nM | 1 nM | CC#Cc1cncc(-c2ccc3c(c2)[C@@]2(COC(N)=N2)c2cc(-c4cnn(C)c4)cnc2O3)c1 [Example 944, (5S)-3-(1-methyl-1H-pyrazol-4-yl)-7-(5-(1-propyn-1-yl)-3-pyridinyl)spiro[chromeno[2,3-b]pyridine-5,4′-[1,3]oxazol]-2′-amine] |
| 0.8 nM | 2 nM | CC#Cc1cncc(-c2ccc3c(c2)[C@@]2(COC(N)=N2)c2cc(C#CC(C)(C)O)cnc2O3)c1 [Example 945, 4-((5S)-2′-amino-7-(5-(1-propyn-1-yl)-3-pyridinyl)spiro[chromeno[2,3-b]pyridine-5,4′-[1,3]oxazol]-3-yl)-2-methyl-3-butyn-2-ol] |
| 0.4 nM | 3 nM | CC#Cc1cncc(-c2ccc3c(c2)[C@@]2(COC(N)=N2)c2cc(OCC4(C)COC4)cc(F)c2O3)c1 [Example 949, (4S)-4′-fluoro-2′-((3-methyl-3-oxetanyl)methoxy)-7′-(5-(1-propyn-1-yl)-3-pyridinyl)spiro[1,3-oxazole-4,9′-xanthen]-2-amine] |
| 0.3 nM | 2 nM | CC#Cc1cncc(-c2ccc3c(c2)[C@@]2(COC(N)=N2)c2cc(C4=CCCOC4)cnc2O3)c1 [Example 950, (5S)-3-(5,6-dihydro-2H-pyran-3-yl)-7-(5-(1-propyn-1-yl)-3-pyridinyl)spiro[chromeno[2,3-b]pyridine-5,4′-[1,3]oxazol]-2′-amine] |
